# Laboratory results published in ChEMBL document CHEMBL2380264, “Synthesis and antitumor activity of 1,3,4-oxadiazole possessing 1,4-benzodioxan moiety as a novel class of potent methionine aminopeptidase type II inhibitors” (Bioorg Med Chem Lett, 2013).
# Legend:
# HUVEC [1] = test: Antiproliferative against HUVEC after 48 hrs by MTT assay; conditions: Homo sapiens
# [2] = Cytotoxicity against HUVEC after 24 hrs by MTT assay; type: cell-based; conditions: human, HUVEC cells
# HUVEC [3] = test: Induction of apoptosis in HUVEC assessed as viable cells at 4 uM after 24 hrs by annexin V-FITC/propidium iodide staining-based FACS flow cytometric analysis (reference value: 96.26%); type: functional; conditions: Homo sapiens, read-out: Activity
# HUVEC [4] = test: Induction of apoptosis in HUVEC after 24 hrs by annexin V-FITC/propidium iodide staining-based FACS flow cytometric analysis; type: functional, cell-based; conditions: Homo sapiens
# HUVEC [5] = test: Induction of apoptosis in HUVEC assessed as late apoptotic cells at 2 uM after 24 hrs by annexin V-FITC/propidium iodide staining-based FACS flow cytometric analysis (reference value: 0.09%); type: functional, Homo sapiens
# HUVEC [6] = test: Induction of apoptosis in HUVEC assessed as dead cells at 0.5 uM after 24 hrs by annexin V-FITC/propidium iodide staining-based FACS flow cytometric analysis (reference value: 2.82%); type: functional, Homo sapiens
# HUVEC [7] = test: Induction of apoptosis in HUVEC assessed as late apoptotic cells at 0.5 uM after 24 hrs by annexin V-FITC/propidium iodide staining-based FACS flow cytometric analysis (reference value: 0.09%); type: functional, Homo sapiens
# HUVEC [8] = test: Induction of apoptosis in HUVEC assessed as dead cells at 4 uM after 24 hrs by annexin V-FITC/propidium iodide staining-based FACS flow cytometric analysis (reference value: 2.82%); type: functional, Homo sapiens
# HUVEC [9] = test: Induction of apoptosis in HUVEC assessed as viable cells at 0.5 uM after 24 hrs by annexin V-FITC/propidium iodide staining-based FACS flow cytometric analysis (reference value: 96.26%); type: functional; conditions: Homo sapiens, read-out: Activity
# HUVEC [10] = test: Induction of apoptosis in HUVEC assessed as dead cells at 2 uM after 24 hrs by annexin V-FITC/propidium iodide staining-based FACS flow cytometric analysis (reference value: 2.82%); type: functional, Homo sapiens
# HUVEC [11] = test: Induction of apoptosis in HUVEC assessed as early apoptotic cells at 1 uM after 24 hrs by annexin V-FITC/propidium iodide staining-based FACS flow cytometric analysis (reference value: 0.02%); type: functional, Homo sapiens
# HUVEC [12] = test: Induction of apoptosis in HUVEC assessed as early apoptotic cells at 0.5 uM after 24 hrs by annexin V-FITC/propidium iodide staining-based FACS flow cytometric analysis (reference value: 0.02%); type: functional, Homo sapiens
# HUVEC [13] = test: Induction of apoptosis in HUVEC assessed as late apoptotic cells at 4 uM after 24 hrs by annexin V-FITC/propidium iodide staining-based FACS flow cytometric analysis (reference value: 0.09%); type: functional, Homo sapiens
# HUVEC [14] = test: Induction of apoptosis in HUVEC assessed as late apoptotic cells at 1 uM after 24 hrs by annexin V-FITC/propidium iodide staining-based FACS flow cytometric analysis (reference value: 0.09%); type: functional, Homo sapiens
# HUVEC [15] = test: Induction of apoptosis in HUVEC assessed as viable cells at 1 uM after 24 hrs by annexin V-FITC/propidium iodide staining-based FACS flow cytometric analysis (reference value: 96.26%); type: functional; conditions: Homo sapiens, read-out: Activity
# HUVEC [16] = test: Induction of apoptosis in HUVEC assessed as dead cells at 1 uM after 24 hrs by annexin V-FITC/propidium iodide staining-based FACS flow cytometric analysis (reference value: 2.82%); type: functional, Homo sapiens
# HUVEC [17] = test: Induction of apoptosis in HUVEC assessed as early apoptotic cells at 2 uM after 24 hrs by annexin V-FITC/propidium iodide staining-based FACS flow cytometric analysis (reference value: 0.02%); type: functional, Homo sapiens
# HUVEC [18] = test: Induction of apoptosis in HUVEC assessed as viable cells at 2 uM after 24 hrs by annexin V-FITC/propidium iodide staining-based FACS flow cytometric analysis (reference value: 96.26%); type: functional; conditions: Homo sapiens, read-out: Activity
# HUVEC [19] = test: Induction of apoptosis in HUVEC assessed as early apoptotic cells at 4 uM after 24 hrs by annexin V-FITC/propidium iodide staining-based FACS flow cytometric analysis (reference value: 0.02%); type: functional, Homo sapiens
# [20] = biological target: Methionine aminopeptidase 2 (Homo sapiens, UniProt P50579); test: Inhibition of MetAP2 (unknown origin) after 4 hrs
# Methionine aminopeptidase 2, sequence (P50579 whole entry): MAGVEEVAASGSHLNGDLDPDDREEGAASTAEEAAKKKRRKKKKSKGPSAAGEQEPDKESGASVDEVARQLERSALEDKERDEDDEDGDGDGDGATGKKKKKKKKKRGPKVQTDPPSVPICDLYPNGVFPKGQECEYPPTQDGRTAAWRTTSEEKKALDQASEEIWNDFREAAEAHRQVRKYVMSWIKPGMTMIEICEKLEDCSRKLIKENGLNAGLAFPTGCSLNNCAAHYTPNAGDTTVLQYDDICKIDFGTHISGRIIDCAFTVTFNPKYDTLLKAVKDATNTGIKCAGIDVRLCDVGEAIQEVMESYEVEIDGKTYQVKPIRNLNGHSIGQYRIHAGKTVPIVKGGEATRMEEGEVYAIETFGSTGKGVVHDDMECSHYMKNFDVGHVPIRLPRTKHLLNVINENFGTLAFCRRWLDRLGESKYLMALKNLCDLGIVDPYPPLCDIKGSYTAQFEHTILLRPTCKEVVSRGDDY
SMILES,IC50 (HUVEC [1]) [µM],CC50 at 24 h [2] [µM],also measured
Brc1ccccc1/C=C/c1nnc(-c2ccc3c(c2)OCCO3)o1,8.89,287,–
O=[N+]([O-])c1ccccc1/C=C/c1nnc(-c2ccc3c(c2)OCCO3)o1,25,323,–
Fc1ccc(/C=C/c2nnc(-c3ccc4c(c3)OCCO4)o2)cc1,4.96,325,–
COc1ccc(/C=C/c2nnc(-c3ccc4c(c3)OCCO4)o2)cc1,> 50,312,–
Fc1ccccc1/C=C/c1nnc(-c2ccc3c(c2)OCCO3)o1,1.16,402,viability at 4 µM (HUVEC [3]): 39.5%; Activity (HUVEC [4]): Dose-dependent effect; Activity (HUVEC [5]): 16.4%; Activity (HUVEC [6]): 30.26%; Activity (HUVEC [7]): 5.22%; Activity (HUVEC [8]): 26.23%; viability at 0.5 µM (HUVEC [9]): 63.5%; Activity (HUVEC [10]): 31.26%; Activity (HUVEC [11]): 2.69%; Activity (HUVEC [12]): 1.07%; Activity (HUVEC [13]): 25.61%; Activity (HUVEC [14]): 14.01%; viability at 1 µM (HUVEC [15]): 56.6%; Activity (HUVEC [16]): 26.68%; Activity (HUVEC [17]): 3.01%; viability at 2 µM (HUVEC [18]): 49.3%; Activity (HUVEC [19]): 8.64%
Cc1ccccc1/C=C/c1nnc(-c2ccc3c(c2)OCCO3)o1,40.5,356,–
Cc1ccc(/C=C/c2nnc(-c3ccc4c(c3)OCCO4)o2)cc1,45.2,265,–
NNC(=O)c1ccc2c(c1)OCCO2,> 50,200,–
Clc1ccccc1/C=C/c1nnc(-c2ccc3c(c2)OCCO3)o1,7.71,368,–
O=[N+]([O-])c1cccc(/C=C/c2nnc(-c3ccc4c(c3)OCCO4)o2)c1,30.1,309,–
Brc1cccc(/C=C/c2nnc(-c3ccc4c(c3)OCCO4)o2)c1,13.5,322,–
CO[C@@H]1[C@H](OC(=O)NC(=O)CCl)CC[C@]2(CO2)[C@H]1[C@@]1(C)O[C@@H]1CC=C(C)C [O-CHLOROACETYLCARBAMOYLFUMAGILLOL],1.96,–,IC50 [20]: 1.32 µM
Clc1ccc(/C=C/c2nnc(-c3ccc4c(c3)OCCO4)o2)cc1,8.03,312,–
Brc1ccc(/C=C/c2nnc(-c3ccc4c(c3)OCCO4)o2)cc1,22.3,491,–
COc1cccc(/C=C/c2nnc(-c3ccc4c(c3)OCCO4)o2)c1,> 50,332,–
Cc1cccc(/C=C/c2nnc(-c3ccc4c(c3)OCCO4)o2)c1,40.6,201,–
Fc1cccc(/C=C/c2nnc(-c3ccc4c(c3)OCCO4)o2)c1,3.53,295,–
O=[N+]([O-])c1ccc(/C=C/c2nnc(-c3ccc4c(c3)OCCO4)o2)cc1,32.1,299,–
C(=C\c1nnc(-c2ccc3c(c2)OCCO3)o1)/c1ccccc1,> 50,209,–
